Test results reported in US6767725B2, “Acetyl amino acid racemase from amycolatopsis orientalis for racemizing carbamoyl amino acids” (Degussa AG, priority 2000, dated 2004).

Experiments:
[1] = tested on: N-acetyl amino acid racemase from Amycolatopsis orientalis subsp. lurida; experiment: Detection of racemase activity of recombinant AAR (polarimetric racemization assay); type: biochemical; conditions: substrate 25 mM, Tris/HCl 50 mM pH 8.0, cobalt chloride 6 mM, approx 150 μg purified protein, 30° C., 3 to 12 hours, polarimeter λ=365 nm
Description: The substrate spectrum of the N-acetyl amino acid racemase from Amycolatopsis orientalis subsp. lurida was tested using the enzyme assay described below. The assay was composed of the following: [table] Enantiomerically pure amino acid derivatives were used in the test and the formation of the corresponding racemate was monitored in the polarimeter (Perkin-Elmer 241). Incubation took place at 30° C. (heated cell) for 3 to 12 hours. The measurements were taken at a wave length of λ=365 nm.

[2] = molecular target: T1, N-acyl amino acid racemase from A. TS-1-60 (Amycolatopsis sp, UniProt Q44244); experiment: Racemase activity of the N-acyl amino acid racemase from A. TS-1-60; type: biochemical, Amycolatopis sp. TS-1-60; conditions: N-carbamoyl-D-Met as substrate
T1 sequence (Q44244 1-368): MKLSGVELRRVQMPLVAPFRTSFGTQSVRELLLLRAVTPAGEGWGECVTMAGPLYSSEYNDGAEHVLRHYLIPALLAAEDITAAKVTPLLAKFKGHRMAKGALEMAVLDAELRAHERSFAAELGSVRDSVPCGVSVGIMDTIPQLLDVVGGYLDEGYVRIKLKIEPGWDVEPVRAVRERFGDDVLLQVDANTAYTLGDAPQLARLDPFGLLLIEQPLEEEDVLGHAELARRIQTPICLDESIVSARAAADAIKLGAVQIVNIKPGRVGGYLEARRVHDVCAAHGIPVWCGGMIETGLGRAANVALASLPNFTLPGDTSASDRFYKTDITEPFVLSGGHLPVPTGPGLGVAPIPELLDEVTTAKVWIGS
Source text: The N-acyl amino acid racemase from A. TS-1-60 with N-carbamoyl-D-Met as substrate has an activity of 100 mU/mg. This specific activity is thus 35% lower than that of the racemase from A. orientalis subsp. lurida.

Compound	Specific activity of the AAR [1] [mU/mg]	activity (specific activity) of the racemase from A. TS-1-60 [2] [mU/mg]	specific activity lower than that of the racemase from A. orientalis subsp. lurida ([2]; TS-1-60 racemase versus A. orientalis subsp. lurida racemase) [%]
CSCC[C@@H](NC(N)=O)C(=O)O [N-Carbamoyl-D-Met]	155	100	35
NC(=O)N[C@H](Cc1ccccc1)C(=O)O [N-Carbamoyl-D-Phe]	20	–	–
CC(C)C[C@H](NC(N)=O)C(=O)O [N-Carbamoyl-L-Leu]	20	–	–
CSCC[C@H](NC(N)=O)C(=O)O [N-Carbamoyl-L-Met]	118	–	–
NC(=O)N[C@@H](Cc1ccc(O)cc1)C(=O)O [N-Carbamoyl-L-Tyr]	62	–	–
CC(C)[C@H](NC(N)=O)C(=O)O [N-Carbamoyl-L-Val]	20	–	–
N-Carbamoyl-L-Abs	15	–	–
